According to patent US9120793B2, “Triazolo-pyridine compound” (Eli Lilly and Company, priority 2013, dated 2015):

What was measured:
hGPR-40 (hFFAR1) = biological target: T1, hGPR-40 (hFFAR1) (Homo sapiens, UniProt O14842); assay: Human beta-arrestin agonist assay with 1% FBS; format: cell-based
T1 construct: host or cells: HEK293
Text: Human embryonic kidney (hEK293)-hFFAR1 cells are purchased from DiscoveRx™. Human osteosarcoma (U2OS) cells expressing mFFAR1 are developed by DiscoveRX™. These cells co-express the Prolink™ (PK)-tagged GPR-40 and the Enzyme Acceptor™ (EA)-tagged beta-arrestin fusion proteins. If activation of the GPR-40 stimulates beta-arrestin recruitment, it would force complementation of the beta galactosidase (B-gal) enzyme fragments, forming a B-gal enzyme that generates a chemiluminescent signal using the DiscoveRx PathHunter™ detection kit. Cells are incubated overnight at 5,000 cells/well in 384 well plates in culture media containing 1% FBS (fetal bovine serum). Serial diluted compound in DMSO (2× dilutions to generate 20 concentrations) are step down diluted in culture media containing 1% FBS (fetal bovine serum) and added to cells with a final top concentration starting of 100 μM. After addition of compound, cells are incubated for 90 min at 37° C. in 5% CO2 incubator, and DiscoveRX™ kit detection reagents are added. Measurement of the chemiluminescent signal is ascertained with the Envision™ reader, after a 1-hour incubation at room temperature. Data are fit to a 4 parameter-fit logistics to determine EC50 values, % activity is measured versus maximum response to an internal standard GPR-40 agonist at 1 μM.

Zucker fa/fa rats = assay: Chronic oral glucose tolerance test (OGTT); format: in vivo, rat
Description: OGTTs are performed in Zucker fa/fa rats, a rodent model of insulin resistance, after 1 and 21 days of orally administered exemplified compound at 1.0, 3.0 and 10 mg/kg. A standard GPR-40 agonist at 1 mg/kg serves as the positive control. OGTTs are performed one hour post compound administration with blood samples taken for determination of glucose and insulin levels at 10, 20, 40, 60, and 120 minutes post glucose administration. […] Weight and food consumption are not altered due to any treatment during the study.

PPARγ = biological target: T2, PPARγ (Homo sapiens, UniProt P37231); assay: PPARγ reporter (CTF)/functional assay in CV1 cells; format: cell-based
T2 construct: expressed in transfected cells; host or cells: CV1 (African green monkey kidney)
T2 sequence (P37231 1-505): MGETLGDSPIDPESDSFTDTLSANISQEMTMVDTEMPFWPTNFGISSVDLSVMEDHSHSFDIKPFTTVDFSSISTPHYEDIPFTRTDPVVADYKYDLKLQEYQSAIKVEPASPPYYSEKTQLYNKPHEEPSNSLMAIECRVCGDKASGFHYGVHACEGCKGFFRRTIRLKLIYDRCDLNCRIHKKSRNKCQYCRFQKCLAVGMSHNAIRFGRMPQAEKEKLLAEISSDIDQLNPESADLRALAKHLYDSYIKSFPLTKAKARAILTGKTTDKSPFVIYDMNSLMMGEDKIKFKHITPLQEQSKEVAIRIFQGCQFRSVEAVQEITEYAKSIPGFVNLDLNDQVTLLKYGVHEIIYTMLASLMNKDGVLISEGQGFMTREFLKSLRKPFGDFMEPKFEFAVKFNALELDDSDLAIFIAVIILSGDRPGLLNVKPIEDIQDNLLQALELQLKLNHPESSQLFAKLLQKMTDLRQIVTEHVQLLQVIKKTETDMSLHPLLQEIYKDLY
T2 sequence (P19793 1-462 partner): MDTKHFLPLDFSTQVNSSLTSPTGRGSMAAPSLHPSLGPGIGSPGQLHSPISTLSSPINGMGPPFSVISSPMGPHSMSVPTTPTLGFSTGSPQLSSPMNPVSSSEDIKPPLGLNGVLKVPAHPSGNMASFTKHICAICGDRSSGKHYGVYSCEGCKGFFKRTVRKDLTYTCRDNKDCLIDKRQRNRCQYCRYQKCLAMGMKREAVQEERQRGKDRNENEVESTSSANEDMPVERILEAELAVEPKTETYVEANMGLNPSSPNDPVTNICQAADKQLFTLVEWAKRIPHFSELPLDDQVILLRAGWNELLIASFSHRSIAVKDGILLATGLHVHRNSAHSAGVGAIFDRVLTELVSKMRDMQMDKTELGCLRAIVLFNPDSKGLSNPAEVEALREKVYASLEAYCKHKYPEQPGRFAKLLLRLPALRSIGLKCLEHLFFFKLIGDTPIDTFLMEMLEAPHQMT
Text: Because GPR-40 is known to be activated by ligands to PPARγ, exemplified compounds are examined in PPARα, PPARδ, and PPARγ reporter assays to determine the selectivity of an exemplified compound. CV1 cells, which are derived from the renal tissue of an African green monkey, are transfected with various receptor and reporter plasmids using Fugene. For the PPARα and PPARδ assays, a reporter plasmid containing five tandem copies of the yeast transcription protein Gal4 response element, cloned upstream of a firefly luciferase gene driven by the major late promoter of adenovirus, is transfected together with a Simian Virus 40 (SV40) driven plasmid constitutively expressing a hybrid protein containing the Gal4 DNA binding domain (DBD), and either the PPARα or PPARδ ligand binding domain. For the PPARγ assay, plasmids encoding PPARγ and RXRα, both driven by a cytomegalovirus (CMV) promoter are transfected together with a plasmid containing luciferase reporter cDNA driven by the TK promoter and a receptor response element (2×PPRE). […] After 24 hours incubation with compound, cells are lysed and luciferase activity is determined as a measure of receptor activation by luminescence. […] The maximum percent stimulation is determined versus maximum stimulation obtained with 10 μM of an appropriate PPAR agonist reference compound. […]

T1 sequence (O14842 whole entry): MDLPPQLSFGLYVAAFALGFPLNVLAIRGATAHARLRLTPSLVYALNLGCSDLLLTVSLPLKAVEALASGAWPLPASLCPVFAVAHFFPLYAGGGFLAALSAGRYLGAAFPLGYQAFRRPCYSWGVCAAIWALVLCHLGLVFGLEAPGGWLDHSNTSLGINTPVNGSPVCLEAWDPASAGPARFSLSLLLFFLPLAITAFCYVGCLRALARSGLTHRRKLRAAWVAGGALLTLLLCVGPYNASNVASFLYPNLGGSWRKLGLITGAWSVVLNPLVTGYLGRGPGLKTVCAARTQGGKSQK
T1 sequence (P32121 whole entry partner): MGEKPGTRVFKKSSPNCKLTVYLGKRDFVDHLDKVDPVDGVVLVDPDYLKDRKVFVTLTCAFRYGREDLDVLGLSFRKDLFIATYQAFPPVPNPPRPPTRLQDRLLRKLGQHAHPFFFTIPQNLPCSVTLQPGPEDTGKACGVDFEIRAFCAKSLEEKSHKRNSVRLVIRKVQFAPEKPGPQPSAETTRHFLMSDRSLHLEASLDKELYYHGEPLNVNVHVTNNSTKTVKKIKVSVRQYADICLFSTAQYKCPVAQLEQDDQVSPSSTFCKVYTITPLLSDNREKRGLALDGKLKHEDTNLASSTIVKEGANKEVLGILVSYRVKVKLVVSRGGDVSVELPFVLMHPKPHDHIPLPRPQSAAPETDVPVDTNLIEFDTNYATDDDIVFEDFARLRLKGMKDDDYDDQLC

EC50 (hGPR-40 (hFFAR1); hEK293-hFFAR1 cells, 1% FBS, 90 min, read-out: hGPR-40 b-arrestin EC50): 0.0448 µM | hGPR-40 b-arrestin % stimulation max (FA) (hGPR-40 (hFFAR1); versus internal standard GPR-40 agonist at 1 μM): 128% | EC50 (PPARγ; CV1 cells, luciferase reporter, 24 hours): 2.6 µM | Emax (PPARγ; CV-1, versus 10 μM PPAR agonist reference compound, <20% considered negative, read-out: % efficacy in PPARγ CTF assay): 17%
Compound: CC#C[C@@H](CC(=O)O)c1ccc(OCc2ccc3nc(-c4c(C)cccc4C)nn3c2)cc1 [Example 1, (3S)-3-[4-[[2-(2,6-Dimethylphenyl)-[1,2,4]triazolo[1,5-a]pyridin-6-yl]methoxy]phenyl]hex-4-ynoic acid]
Weight and food consumption (Zucker fa/fa rats; 21 days oral administration, any treatment): not altered | ED90 for glucose lowering (Zucker fa/fa rats; day 1, oral): 4.1 mg/kg | ED90 for glucose lowering (Zucker fa/fa rats; day 21, oral): 5.0 mg/kg | AUCs for glucose lowering (Zucker fa/fa rats; days 1 and 21, oral 1, 3 and 10 mg/kg, p<0.05): statistically significant | Insulin AUCs during the OGTTs (Zucker fa/fa rats; oral 1, 3 and 10 mg/kg, values not statistically significant): dose dependent elevation
